Legend:
[1] = molecular target: T1, CYP1A2 (Homo sapiens, UniProt P05177); assay: Inhibition of CYP1A2 activity (7-ethoxyresorufin O-deethylation) in human liver microsomes; format: in vitro ADME; settings: HLM, 7-ethoxyresorufin 1.3 µmol·L^−1, preincubation 30 min at 37 °C, Mean ± S.D.
T1 construct: Pooled human liver microsomes were obtained from Biopredic (Rennes, France); tissue Biopredic (Rennes, France); host or cells: pooled human liver microsomes, seventeen donors
T1 sequence (P05177 1-516): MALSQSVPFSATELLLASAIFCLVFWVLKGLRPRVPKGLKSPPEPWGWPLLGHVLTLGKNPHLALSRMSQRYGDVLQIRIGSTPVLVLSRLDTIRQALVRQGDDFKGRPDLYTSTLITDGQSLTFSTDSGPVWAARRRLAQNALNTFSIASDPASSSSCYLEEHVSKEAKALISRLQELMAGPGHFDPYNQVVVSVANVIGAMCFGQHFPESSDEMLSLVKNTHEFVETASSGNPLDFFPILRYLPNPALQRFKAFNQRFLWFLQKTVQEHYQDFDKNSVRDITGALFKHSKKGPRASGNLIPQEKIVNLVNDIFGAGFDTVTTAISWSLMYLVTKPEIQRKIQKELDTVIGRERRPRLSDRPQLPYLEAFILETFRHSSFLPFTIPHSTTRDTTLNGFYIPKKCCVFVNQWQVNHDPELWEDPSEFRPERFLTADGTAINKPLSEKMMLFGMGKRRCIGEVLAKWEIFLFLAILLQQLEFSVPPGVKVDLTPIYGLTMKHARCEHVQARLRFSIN
Description: (§1) The following enzyme assays were performed to determine the activities of specific CYP enzymes: CYP1A2, 7-ethoxyresorufin O-deethylation; CYP2A6, coumarin 7-hydroxylation; CYP2B6, 7-ethoxy-4-(trifluoromethyl) coumarin (EFC) O-deethylation; CYP2C8 paclitaxel 6α-hydroxylation; CYP2C9, diclofenac 4′-hydroxylation; CYP2C19, diazepam N-desmethylation; CYP2D6, bufuralol 1′-hydroxylation; CYP2E1, chlorzoxazone 6-hydroxylation; and CYP3A4/5, testosterone 6β-hydroxylation. […]
(§2) For the determination of metabolites formed from specific substrates, a Prominence LC-20A HPLC system (Shimadzu, Kyoto, Japan) with UV detection or fluorescence detection was used (see Table 2). […]
(§3) Initially, for each enzyme assay, a preliminary experiment was carried out to determine Km and Vmax to obtain the appropriate concentration of the specific substrates for the inhibition experiments (the substrate concentration was chosen in the range corresponding to the value of the Km for each particular reaction). Data were analyzed using the Sigma plot software, as mentioned above, with spectral studies. […] In all cases, the inhibition of individual CYP activities was evaluated by plotting the respective remaining activity against the inhibitor concentration.

[2] = molecular target: T2, CYP2A6 (Homo sapiens, UniProt P11509); assay: Inhibition of CYP2A6 activity (coumarin 7-hydroxylation) in human liver microsomes; format: in vitro ADME; settings: HLM, coumarin 15 µmol·L^−1, preincubation 30 min at 37 °C, Mean ± S.D.
T2 construct: Pooled human liver microsomes were obtained from Biopredic (Rennes, France); tissue Biopredic (Rennes, France); host or cells: pooled human liver microsomes, seventeen donors
T2 sequence (P11509 1-494): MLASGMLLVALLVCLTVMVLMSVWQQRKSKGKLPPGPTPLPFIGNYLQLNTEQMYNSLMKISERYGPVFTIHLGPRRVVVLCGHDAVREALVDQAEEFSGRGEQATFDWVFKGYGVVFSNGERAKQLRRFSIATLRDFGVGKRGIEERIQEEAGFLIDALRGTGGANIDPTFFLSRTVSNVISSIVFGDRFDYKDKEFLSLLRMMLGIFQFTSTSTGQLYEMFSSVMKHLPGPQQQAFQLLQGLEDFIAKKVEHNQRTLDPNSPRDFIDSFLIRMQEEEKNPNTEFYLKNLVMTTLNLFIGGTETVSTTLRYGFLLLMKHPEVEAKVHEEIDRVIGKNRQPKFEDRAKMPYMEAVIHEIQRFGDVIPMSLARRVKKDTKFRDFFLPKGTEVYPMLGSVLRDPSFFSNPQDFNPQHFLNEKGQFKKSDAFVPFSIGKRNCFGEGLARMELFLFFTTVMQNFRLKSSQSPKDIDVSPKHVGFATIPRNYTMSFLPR
Description: as §1, §2, §3

[3] = molecular target: T3, CYP2C9 (Homo sapiens, UniProt P11712); assay: Inhibition of CYP2C9 activity (diclofenac 4′-hydroxylation) in human liver microsomes; format: in vitro ADME; settings: HLM, diclofenac 16 µmol·L^−1, preincubation 30 min at 37 °C, Mean ± S.D.
T3 construct: Pooled human liver microsomes were obtained from Biopredic (Rennes, France); tissue Biopredic (Rennes, France); host or cells: pooled human liver microsomes, seventeen donors
T3 sequence (P11712 whole entry): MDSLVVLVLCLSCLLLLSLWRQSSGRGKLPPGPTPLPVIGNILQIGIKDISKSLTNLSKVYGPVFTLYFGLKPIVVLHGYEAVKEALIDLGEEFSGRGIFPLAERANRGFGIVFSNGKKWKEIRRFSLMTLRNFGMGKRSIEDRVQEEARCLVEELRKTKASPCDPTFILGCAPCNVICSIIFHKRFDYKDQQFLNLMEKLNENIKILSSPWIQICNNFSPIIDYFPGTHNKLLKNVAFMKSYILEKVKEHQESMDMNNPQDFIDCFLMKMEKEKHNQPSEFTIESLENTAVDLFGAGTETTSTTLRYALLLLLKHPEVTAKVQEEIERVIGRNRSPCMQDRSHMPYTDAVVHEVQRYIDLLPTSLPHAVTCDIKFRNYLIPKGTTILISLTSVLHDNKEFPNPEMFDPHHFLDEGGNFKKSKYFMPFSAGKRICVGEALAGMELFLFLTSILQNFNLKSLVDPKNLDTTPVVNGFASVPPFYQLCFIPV
Description: as §1, §2, §3

[4] = molecular target: T4, CYP2C19 (Homo sapiens, UniProt P33261); assay: Inhibition of CYP2C19 activity (diazepam N-desmethylation) in human liver microsomes; format: in vitro ADME; settings: HLM, diazepam 150 µmol·L^−1, preincubation 30 min at 37 °C, Mean ± S.D.
T4 construct: Pooled human liver microsomes were obtained from Biopredic (Rennes, France); tissue Biopredic (Rennes, France); host or cells: pooled human liver microsomes, seventeen donors
T4 sequence (P33261 whole entry): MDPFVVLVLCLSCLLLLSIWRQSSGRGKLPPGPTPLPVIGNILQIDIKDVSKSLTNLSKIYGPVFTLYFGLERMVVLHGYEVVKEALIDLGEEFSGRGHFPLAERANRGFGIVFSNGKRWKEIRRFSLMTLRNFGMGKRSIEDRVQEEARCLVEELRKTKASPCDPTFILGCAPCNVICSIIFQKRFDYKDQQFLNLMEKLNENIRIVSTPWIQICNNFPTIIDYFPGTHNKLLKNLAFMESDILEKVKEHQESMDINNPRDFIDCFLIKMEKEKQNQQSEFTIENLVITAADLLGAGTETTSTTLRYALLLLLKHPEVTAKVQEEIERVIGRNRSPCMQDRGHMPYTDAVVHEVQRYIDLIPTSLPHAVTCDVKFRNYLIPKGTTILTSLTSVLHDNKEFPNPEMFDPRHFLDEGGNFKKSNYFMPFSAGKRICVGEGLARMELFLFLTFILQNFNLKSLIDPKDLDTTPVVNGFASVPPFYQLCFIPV
Description: The following enzyme assays were performed to determine the activities of specific CYP enzymes: CYP1A2, 7-ethoxyresorufin O-deethylation; CYP2A6, coumarin 7-hydroxylation; CYP2B6, 7-ethoxy-4-(trifluoromethyl) coumarin (EFC) O-deethylation; CYP2C8 paclitaxel 6α-hydroxylation; CYP2C9, diclofenac 4′-hydroxylation; CYP2C19, diazepam N-desmethylation; CYP2D6, bufuralol 1′-hydroxylation; CYP2E1, chlorzoxazone 6-hydroxylation; and CYP3A4/5, testosterone 6β-hydroxylation.
The incubation mixtures contained 100 mmol·L^−1 potassium phosphate buffer (pH 7.4), an NADPH-generating system (0.8 mmol·L^−1 NADP^+, 5.8 mmol·L^−1 isocitrate, 0.3 unit/mL of isocitrate dehydrogenase, and 8 mmol·L^−1 MgCl2), HLM, and an individual probe substrate.
For the determination of metabolites formed from specific substrates, a Prominence LC-20A HPLC system (Shimadzu, Kyoto, Japan) with UV detection or fluorescence detection was used (see Table 2). As a rule, reversed-phase chromatography was applied with Merck (Darmstadt, Germany) LiChroCART 250 × 4 mm (i.d.) cartridges packed with a LiChrospher RP-18 silica gel (5 µm particle size) with C-18 reversed-phase properties; a 4 × 4 mm (i.d.) guard column was also used. For the composition of the mobile phase in the respective analyses, see the original reference.
Initially, for each enzyme assay, a preliminary experiment was carried out to determine Km and Vmax to obtain the appropriate concentration of the specific substrates for the inhibition experiments (the substrate concentration was chosen in the range corresponding to the value of the Km for each particular reaction). Data were analyzed using the Sigma plot software, as mentioned above, with spectral studies. Inhibition experiments were performed with a concentration range of the tested complexes from 0.78 to 50 µmol·L^−1. The concentration range used here is in accordance with the MIC (see above) and is adequate. The experimental conditions were the same as for the determination of individual CYP activities (Table 2); the assays were performed in duplicates, with individual values differing by less than 20%. Preincubation of the reaction mixtures with the tested complexes for 30 min at 37 °C was carried out in all assays. In all cases, the inhibition of individual CYP activities was evaluated by plotting the respective remaining activity against the inhibitor concentration.

[5] = molecular target: T5, CYP2D6 (Homo sapiens, UniProt P10635); assay: Inhibition of CYP2D6 activity (bufuralol 1′-hydroxylation) in human liver microsomes; format: in vitro ADME; settings: HLM, bufuralol 15 µmol·L^−1, preincubation 30 min at 37 °C, Mean ± S.D.
T5 construct: Pooled human liver microsomes were obtained from Biopredic (Rennes, France); tissue Biopredic (Rennes, France); host or cells: pooled human liver microsomes, seventeen donors
T5 sequence (P10635 whole entry): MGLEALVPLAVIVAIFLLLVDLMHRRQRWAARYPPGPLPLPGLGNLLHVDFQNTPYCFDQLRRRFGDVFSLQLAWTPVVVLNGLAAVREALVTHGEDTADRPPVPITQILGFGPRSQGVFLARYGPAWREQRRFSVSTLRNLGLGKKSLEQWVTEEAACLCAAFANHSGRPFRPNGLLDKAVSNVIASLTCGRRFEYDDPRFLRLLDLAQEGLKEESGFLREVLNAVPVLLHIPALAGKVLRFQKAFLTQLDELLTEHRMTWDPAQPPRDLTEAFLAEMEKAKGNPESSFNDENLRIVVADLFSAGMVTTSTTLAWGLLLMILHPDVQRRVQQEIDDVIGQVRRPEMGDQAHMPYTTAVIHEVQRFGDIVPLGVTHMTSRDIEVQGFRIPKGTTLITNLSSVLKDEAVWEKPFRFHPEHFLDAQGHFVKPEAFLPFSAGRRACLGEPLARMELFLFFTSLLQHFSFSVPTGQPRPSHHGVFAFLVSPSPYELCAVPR
Description: as §1, §2, §3

[6] = molecular target: T6, CYP2E1 (Homo sapiens, UniProt P05181); assay: Inhibition of CYP2E1 activity (chlorzoxazone 6-hydroxylation) in human liver microsomes; format: in vitro ADME; settings: HLM, chlorzoxazone 30 µmol·L^−1, preincubation 30 min at 37 °C, Mean ± S.D.
T6 construct: Pooled human liver microsomes were obtained from Biopredic (Rennes, France); tissue Biopredic (Rennes, France); host or cells: pooled human liver microsomes, seventeen donors
T6 sequence (P05181 whole entry): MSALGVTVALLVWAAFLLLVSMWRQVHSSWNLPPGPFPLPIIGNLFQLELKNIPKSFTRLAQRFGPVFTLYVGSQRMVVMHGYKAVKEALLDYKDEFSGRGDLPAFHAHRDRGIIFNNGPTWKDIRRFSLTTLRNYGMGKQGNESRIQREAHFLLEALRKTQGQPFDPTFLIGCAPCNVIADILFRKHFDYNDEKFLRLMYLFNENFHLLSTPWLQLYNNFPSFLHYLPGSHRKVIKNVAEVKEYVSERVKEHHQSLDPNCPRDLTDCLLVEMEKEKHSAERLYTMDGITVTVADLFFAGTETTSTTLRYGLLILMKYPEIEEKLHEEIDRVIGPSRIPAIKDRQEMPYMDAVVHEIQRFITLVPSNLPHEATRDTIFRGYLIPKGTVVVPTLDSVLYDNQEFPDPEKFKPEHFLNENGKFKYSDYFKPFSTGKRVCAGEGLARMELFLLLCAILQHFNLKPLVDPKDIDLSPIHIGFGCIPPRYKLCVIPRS
Description: as §1, §2, §3

[7] = system: CYP3A4; assay: Inhibition of CYP3A4 activity (testosterone 6β-hydroxylation) in human liver microsomes; format: in vitro ADME; settings: HLM, testosterone 100 µmol·L^−1, preincubation 30 min at 37 °C, Mean ± S.D.
Description: as §1, §2, §3

[8] = system: E. faecalis; set-up: method as in doi:10.1016/j.ica.2022.121273; settings: Gram-positive; cited from earlier work
[9] = system: S. aureus; set-up: method as in doi:10.1016/j.ica.2022.121273; settings: Gram-positive; cited from earlier work
[10] = system: E. coli; set-up: method as in doi:10.1016/j.ica.2022.121273; settings: Gram-negative; cited from earlier work

| SMILES | IC50 [1] [µM] | IC50 [2] [µM] | IC50 [3] [µM] | IC50 [4] [µM] | IC50 ([4]; listed as complex No. 6) [µM] | IC50 [5] [µM] | IC50 [6] [µM] | IC50 [7] [µM] | MIC E. faecalis [8] [µg/mL] | MIC S. aureus [9] [µg/mL] | MIC E. coli [10] [µg/mL] | IC50 ([4]; listed as complex No. 5) [µM] |
| --- | --- | --- | --- | --- | --- | --- | --- | --- | --- | --- | --- | --- |
| CN(C)CCN(C)CCN(C)C.CN(C)CCN(C)CCN(C)C.O.O.O=C([O-])CCSSCCC(=O)[O-].[Cu+2].[Cu+2].[O-][Cl+3]([O-])([O-])[O-].[O-][Cl+3]([O-])([O-])[O-] [Complex No. 6, [Cu2(μ-dtdp)(pmdien)2(H2O)2](ClO4)2] | 25.2 ± 0.29 | 25.13 ± 0.13 | 12.26 ± 0.11 | 6.43 ± 0.63 | ~6.4 | 6.33 ± 0.22 | 6.59 ± 0.18 | 3.62 ± 0.27 | 8.44 | 8.44 | 16.88 |  |
| CN(C)CCN(C)CCN(C)C.CN(C)CCN(C)CCN(C)C.O.O.O=C([O-])/C=C/C(=O)[O-].[Cu+2].[Cu+2].[O-][Cl+3]([O-])([O-])[O-].[O-][Cl+3]([O-])([O-])[O-] [Complex No. 5, [Cu2(μ-fu)(pmdien)2(H2O)2](ClO4)2] | 24.97 ± 0.22 | 24.9 ± 0.25 | 12.59 ± 0.06 | 2.53 ± 0.59 |  | 12.4 ± 0.21 | 12.5 ± 0.18 | 3.72 ± 0.23 | 4.22 | 1.05 | 8.44 | ~2.5 |

— publication PMC11434749, “In Vitro Interaction of Binuclear Copper Complexes with Liver Drug-Metabolizing Cytochromes P450” (Pharmaceuticals, 2024)
